Results: ChEMBL document CHEMBL4673329, “Polyketides from the marine-derived fungus Aspergillus falconensis: In silico and in vitro cytotoxicity studies” (Bioorg Med Chem, 2021)
The source made the active and inactive calls. The calls are words filed in the database; no cut-off is given here.

Legend:
Format in all cases: functional, cell-based
[1] = tested on: MDA-MB-231; experiment: Cytotoxicity against human MDA-MB-231 cells assessed as reduction in cell viability upto 100 uM incubated for 24 hrs by MTT assay; conditions: dose microM <=100, time 24.0 hrs
[2] = tested on: MDA-MB-231; experiment: Inhibition of cell migration in human MDA-MB-231 at 70 uM incubated for 24 hrs by scratch wound healing assay
[3] = tested on: L5178Y; experiment: Cytotoxicity against mouse L5178Y cells assessed as reduction in cell viability incubated for 24 hrs by MTT assay

Compound	Activity [1]	inhibition [2]	IC50 [3] [µM]
COC(=O)c1cc(O)cc(OC)c1C(=O)c1c(O)cc(C)c(Cl)c1O	inactive		
COC(=O)c1cc(O)cc(OC)c1C(=O)c1c(O)cc(C)cc1O [SULOCHRIN]	inactive	Active	5.1
